According to patent US20130267680A1, “TOTAL CHEMICAL SYNTHESIS OF UBIQUITIN, UBIQUITIN MUTANTS AND DERIVATIVES THEREOF” (Stichting Het Nederlands kankerinstituut, priority 2010, published 2013):

Legend:
[1] = system: HAUSP/USP7; assay: Ub-AMC/Ub-Rh110-Gly DUB assay with HAUSP/USP7; type: biochemical; conditions: 1 nM enzyme
Protocol: (§1) FIG. 5: Hydrolysis of fluorogenic Ub derivatives by the deubiquitinating enzymes HAUSP/USP7 and UCH-L3. All assays contained 1 nM of enzyme, substrate concentration was varied.
Assay 1: Commercial and synthetic Ub-AMC, prepared according to the present method are treated side by side with HAUSP/USP7 and compared.
(§2) Assay 3: Ub-Rh110-Gly was treated with HAUSP/USP7 and UCH-L3.
Usp7(206-1102) was expressed in E. coli from a synthetic construct and purified as described: (a) Shanmugham et al. J. Am. Chem. Soc. 2010, 132, 8834-8835; (b) Fernandez-Montalvan et al. Febs J. 2007, 274, […].
(§3) assay buffer: 50 mM HEPES pH 7.5 • 100 mM NaCl • 1 mM EDTA • 0.05% Tween20 • 10 mM DTT • Reaction mixtures were incubated for 30 min at 25° C., measured every 5 minutes • 30 μL reactions • Proteins used: Ub-AMC (Commercial) • Ub-AMC (Synthetic) • Ub-Rh110-Gly (Synthetic) • USP7 full length • UCH-L3 All assays contained 1 nM DUB and the following concentrations of Ub:
DUB activity on commercial (Sigma) and synthetic ubiquitin with a C-terminal fluorescent group, 7-amino-4-methylcoumarin (Ub-AMC) were performed at 25° C. in buffer containing 50 mM Hepes pH 7.5, 100 mM NaCl, 1 mM EDTA, 0.05% (w/v) Tween20, 10 mM DTT. The concentrations Ubiquitin-AMC and DUB are specified in the figures. Assays were performed in “Non binding surface flat bottom low flange” black 384-well plates (Corning) in 30 μl reactions. Kinetic data was collected in intervals of 5 min using a Fluostar Optima fluorescence plate reader (BMG Labtechnologies) at excitation and emission wavelengths of 355 nm and 460 nm, respectively for Ub-AMC. Experimental data was processed using Prism 4.03 (GraphPad Software, Inc.).
Target sequence in this assay (Q93009 whole entry): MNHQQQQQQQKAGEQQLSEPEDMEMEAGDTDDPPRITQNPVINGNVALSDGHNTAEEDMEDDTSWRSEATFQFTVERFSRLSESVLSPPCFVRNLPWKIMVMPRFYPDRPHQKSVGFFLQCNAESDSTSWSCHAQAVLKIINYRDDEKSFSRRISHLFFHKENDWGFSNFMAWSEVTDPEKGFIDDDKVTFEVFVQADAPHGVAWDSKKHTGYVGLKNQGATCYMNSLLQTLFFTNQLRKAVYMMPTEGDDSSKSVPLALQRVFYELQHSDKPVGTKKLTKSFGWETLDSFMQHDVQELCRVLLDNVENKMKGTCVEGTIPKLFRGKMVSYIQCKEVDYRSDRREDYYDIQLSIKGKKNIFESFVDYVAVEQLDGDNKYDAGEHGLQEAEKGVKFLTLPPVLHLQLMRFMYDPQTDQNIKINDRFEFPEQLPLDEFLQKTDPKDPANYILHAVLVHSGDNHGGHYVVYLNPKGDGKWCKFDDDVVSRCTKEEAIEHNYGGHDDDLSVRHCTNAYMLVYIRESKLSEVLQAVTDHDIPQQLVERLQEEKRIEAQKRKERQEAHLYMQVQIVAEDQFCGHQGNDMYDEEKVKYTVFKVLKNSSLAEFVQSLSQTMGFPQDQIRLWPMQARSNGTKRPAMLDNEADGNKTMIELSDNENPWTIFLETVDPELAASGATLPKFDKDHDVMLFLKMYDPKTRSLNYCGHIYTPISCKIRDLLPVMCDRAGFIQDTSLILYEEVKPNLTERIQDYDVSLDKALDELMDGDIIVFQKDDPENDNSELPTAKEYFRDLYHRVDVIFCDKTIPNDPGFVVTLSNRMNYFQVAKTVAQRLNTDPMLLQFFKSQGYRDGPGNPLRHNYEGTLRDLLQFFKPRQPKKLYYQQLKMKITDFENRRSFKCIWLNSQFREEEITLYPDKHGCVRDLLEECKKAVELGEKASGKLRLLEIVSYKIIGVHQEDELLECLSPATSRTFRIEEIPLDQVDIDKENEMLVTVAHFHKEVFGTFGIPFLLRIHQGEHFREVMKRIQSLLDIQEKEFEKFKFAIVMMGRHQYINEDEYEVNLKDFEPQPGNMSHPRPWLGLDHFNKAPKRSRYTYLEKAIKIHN

[2] = molecular target: T1, UCH-L3 (Homo sapiens, UniProt P15374); assay: Ub-AMC/Ub-Rh110-Gly DUB assay with UCH-L3; type: biochemical; conditions: 1 nM enzyme, substrate 0.06-15 μM, 25° C., 30 min
T1 construct: made in house; host or cells: Escherichia coli
T1 sequence (P15374 1-230): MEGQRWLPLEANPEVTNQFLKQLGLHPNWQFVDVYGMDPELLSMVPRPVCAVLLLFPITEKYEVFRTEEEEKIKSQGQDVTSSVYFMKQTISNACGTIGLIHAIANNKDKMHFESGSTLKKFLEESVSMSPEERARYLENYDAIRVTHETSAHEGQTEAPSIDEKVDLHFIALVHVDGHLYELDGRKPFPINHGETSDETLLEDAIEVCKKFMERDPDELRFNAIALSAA
Protocol: as §1
Assay 2. Synthetic Ub-AMC was treated with UCH-L3.
as §2
UCH-L3 in pRSET vector was obtained from Dr. Keith Wilkinson. UCH-L3 was expressed in Escherichia coli and purified as described in: C. N. Larsen, J. S. Price, K. D. Wilkinson, K. D. Biochemistry 1996, 35, 6735-6744.
as §3
DUB activity on commercial (Sigma) and synthetic ubiquitin with a C-terminal fluorescent group, 7-amino-4-methylcoumarin (Ub-AMC) were performed at 25° C. in buffer containing 50 mM Hepes pH 7.5, 100 mM NaCl, 1 mM EDTA, 0.05% (w/v) Tween20, 10 mM DTT. The concentrations Ubiquitin-AMC and DUB are specified in the figures. […] Kinetic data was collected in intervals of 5 min using a Fluostar Optima fluorescence plate reader (BMG Labtechnologies) at excitation and emission wavelengths of 355 nm and 460 nm, respectively for Ub-AMC. […]

[3] = system: HAUSP/USP7; assay: Binding of HAUSP/USP7 to ubiquitin-VME; conditions: Ub-VME 2 μM, USP7 1 μM, 60 min at 30° C.
Protocol: Both Ub derivatives are routinely used to measure activity of deubiquitinating enzymes (DUBs). […] The structural integrity of synthetic UbAMC and UBRh110Gly, both prepared in accordance with the method of the present invention, was tested using the following assays.
Binding of HAUSP/USP7 to ubiquitin-VME Assay buffer: 20 mM HEPES pH7.5 • 150 mM NaCl • 2 μM ZnCl2 • 10 mM MgCl2 • 2 mM DTT
Reaction mixtures were incubated for 60 min at 30° C.
Load 10 μL on gel (complete sample)
Target sequence in this assay (Q93009 206-1102): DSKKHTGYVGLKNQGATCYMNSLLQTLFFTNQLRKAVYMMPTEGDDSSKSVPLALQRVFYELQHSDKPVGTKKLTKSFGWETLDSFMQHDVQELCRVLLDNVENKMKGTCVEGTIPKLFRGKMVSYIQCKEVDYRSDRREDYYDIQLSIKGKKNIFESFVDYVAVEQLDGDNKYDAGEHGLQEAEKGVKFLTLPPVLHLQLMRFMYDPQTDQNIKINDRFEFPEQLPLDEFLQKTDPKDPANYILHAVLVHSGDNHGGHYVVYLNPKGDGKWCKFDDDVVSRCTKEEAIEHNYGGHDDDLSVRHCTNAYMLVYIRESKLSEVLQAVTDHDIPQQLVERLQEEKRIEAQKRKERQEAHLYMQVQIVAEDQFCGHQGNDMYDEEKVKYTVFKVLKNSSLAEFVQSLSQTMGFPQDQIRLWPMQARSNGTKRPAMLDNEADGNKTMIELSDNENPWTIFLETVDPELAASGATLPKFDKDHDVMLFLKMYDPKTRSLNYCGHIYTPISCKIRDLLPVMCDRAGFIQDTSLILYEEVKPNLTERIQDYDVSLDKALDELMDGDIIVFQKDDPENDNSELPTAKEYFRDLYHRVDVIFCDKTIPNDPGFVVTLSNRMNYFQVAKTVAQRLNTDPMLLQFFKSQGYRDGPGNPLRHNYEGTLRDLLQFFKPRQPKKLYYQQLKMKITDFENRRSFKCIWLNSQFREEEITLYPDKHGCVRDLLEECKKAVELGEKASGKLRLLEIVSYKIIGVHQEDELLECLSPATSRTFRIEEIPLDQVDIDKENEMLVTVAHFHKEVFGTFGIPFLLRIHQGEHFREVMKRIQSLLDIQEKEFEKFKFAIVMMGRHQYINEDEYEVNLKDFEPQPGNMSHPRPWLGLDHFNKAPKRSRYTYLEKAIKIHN

Km values with HAUSP/USP7 ([1]; substrate concentration varied, synthetic versus commercial UbAMC)	hydrolysis / turnover by UCH-L3 (recognition as substrate) [2]	reaction of active-site targeted probe with HAUSP/USP7 [3]	Substance	hydrolysis / turnover by HAUSP/USP7 (recognition as substrate) ([1]; substrate 0.06-15 μM, 25° C., 30 min)	Michaelis-Menten kinetics comparison with USP7 ([1]; substrate concentration varied, commercial versus synthetic UbAMC (FIG. 5C))	hydrolysis / turnover by UCH-L3 (recognition as substrate) ([2]; listed as synthetic Ub-AMC)
comparable Km values	efficient turnover		synthetic UbAMC: synthetic ubiquitin with a C-terminal fluorescent group, 7-amino-4-methylcoumarin; fluorogenic assay reagent	efficient turnover	identical kinetics	hydrolyzed and thus recognized as a substrate
		reacted swiftly as expected	UbVME: active site directed probe Ub vinylmethyl ester which covalently modifies DUBs			
